Experimental data reported in US20250146074A1 (The General Hospital Corporation, priority 2023, published 2025).

Tests used:
[1] = tested on: Firmicutes CAG:176 thiolase (FcTHL); assay: Promiscuity (substrate competition) assay of the thiolase with amine-containing xenobiotics; details: 1 mM substrate, 5 μM enzyme, room temperature 1 hour
Protocol: Enzyme concentrations were calculated according to Beer's Law with extinction coefficients calculated by Benchling software based on the amino acid sequences of the putative enzymes. […] Reactions were conducted at 37° C. for 6 hours for the initial endpoint assay and room temperature for 1 hour for the promiscuity assay. Quenching/extraction for the promiscuity assay was with equal volumes of acetonitrile and methanol. Quenching/extraction for the end-point was one part sample and nine-parts extraction mix (75% acetonitrile:25% methanol v/v with 10 μM 1,2-^13C2-taurine from Cambridge Isotopes as an internal standard for quantification). Samples were vortexed and cooled to −20° C. and then centrifuged prior to LC-MS analysis.
For the promiscuity assays, mass spectrometry analyses were conducted using an LC-MS system composed of an Agilent 1260 Infinity HPLC (Agilent Technologies) coupled to a 6530 Accurate-Mass QTOF LC-MS (Agilent Technologies). The samples were injected into a 150×3 mm Hypersil GOLD aQ column (Thermo Scientific) at 30° C. […] Remaining identities were inferred using calculated masses with a mass detection tolerance of 10 ppm. Raw data from the LC-MS were analyzed using Agilent MassHunter Qualitative Analysis 10.0 software.

[2] = tested on: Firmicutes CAG:176 thiolase (FcTHL); assay: Kinetic assay of 5-ASA acetylation; format: biochemical, Firmicutes bacterium CAG:176; details: 5-ASA varied, 1 mM acetyl-CoA, 5 μM enzyme, 37° C.
Protocol: The samples were injected into an Infinity Lab Poroshell120 Hilic column (2.1×100 mm 2.7 μm) at 25° C. […] This was followed by a 3 second gradient to 40% mobile phase B. This was then followed by a 27 second gradient returning to 5% mobile phase A at a flow rate of 1200 μL/min. This flow rate and ratio was held for an additional 48 seconds. Additional column equilibration was carried out on a secondary pump for 117 seconds at 5% mobile phase A and a flow rate of 1000 μL/min. MS was conducted in negative ion mode using electrospray ionization. […] Other MS settings were as follows: heater temp 300° C., ESI nebulizer 45 psi, spray voltage 3.5 kV, acquisition time 100 ms/spectrum. […] For absolute quantification, all samples were normalized to the taurine internal standard and concentrations calculated against a standard curve.

[3] = tested on: Firmicutes CAG:176 thiolase (FcTHL, UniRef90 ID R6CZ24); assay: In vitro mass spectrometry end-point assay for 5-ASA acetylation; format: biochemical, Firmicutes bacterium CAG:176; details: 6 hr at 37° C., 1 mM of each substrate, 50 μM enzyme
Text: (§1) Having identified thiolase and acyl-CoA N-acetyltransferase superfamilies with potential 5-ASA-inactivating capabilities, we sought to biochemically confirm these predicted activities in vitro. […] We expressed the known NAT from Salmonella enterica, the candidate thiolase from Firmicutes CAG:176 (UniRef90 ID R6CZ24), and the acyl-CoA N-acetyltransferase from F. prausnitzii (UniRef90 ID C7H1G6) for further biochemical characterization (FIG. 14a). […] The known S. enterica enzyme served as a positive control (FIG. 14b).
(§2) Identities of the constructs were confirmed with DNA sequencing and then were transformed into E. coli BL21 strains for expression according to the standardized protocols from GenScript. All E. coli expression constructs were grown anaerobically in sealed Hungate tubes in Terrific Broth (VWR) supplemented with 5 mM MgSO4 and kanamycin (50 μg/mL) and were incubated at 37° C. overnight before dilution at 1:100 into fresh media the following morning. […]
(§3) The samples were injected into an Infinity Lab Poroshell120 Hilic column (2.1×100 mm 2.7 μm) at 25° C. […] For absolute quantification, all samples were normalized to the taurine internal standard and concentrations calculated against a standard curve.

[4] = tested on: F. prausnitzii acyl-CoA N-acetyltransferase (FpGNAT, UniRef90 ID C7H1G6); assay: as above; format: biochemical, Faecalibacterium prausnitzii; details: 6 hr at 37° C., 1 mM of each substrate, 50 μM enzyme
Text: as §1, §2, §3

[5] = tested on: fecal metabolome; assay: Fecal metabolome pre- and post-5-ASA in new users (IBDMDB); format: in vivo, human; details: stool pre- vs post-5-ASA
Protocol: A portion of each selected stool sample (40-100 mg) and the entire volume of originating ethanol preservative were stored in 15-ml centrifuge tubes at −80° C. until all samples were collected. Samples were then thawed on ice and centrifuged (4° C., 5,000 g) for 5 min. Ethanol was evaporated using a gentle stream of nitrogen gas using a nitrogen evaporator (TurboVap LV; Biotage) and stored at −80° C. until all samples in the study had been dried. After a homogenization and vortexing process, the mixture was aliquoted and stored at −80° C. until LC-MS analyses.
A combination of four untargeted LC-MS methods were used to profile metabolites in the fecal homogenates, as previously published;^22 two methods that measure polar metabolites (a method that measures metabolites of intermediate polarity (for example, fatty acids and bile acids), and a lipid profiling method: 1) HILIC-pos (positive ion mode MS analyses of polar metabolites), 2) HILIC-neg (negative ion mode MS analysis of polar metabolites), 3) C18-neg (negative ion mode analysis of metabolites of intermediate polarity; for example, bile acids and free fatty acids), and 4) C8-pos. Lipids (polar and nonpolar). Additionally, pairs of pooled reference samples were inserted into the queue at intervals of approximately 20 samples for quality control and data standardization. […]
Raw LC-MS data were acquired to the data acquisition computer interfaced to each LC-MS system and then stored on a robust and redundant file storage system (Isilon Systems) accessed via the internal network at the Broad Institute. […] Identification of nontargeted metabolite LC-MS peaks was conducted by: i) matching measured retention times and masses to mixtures of reference metabolites analyzed in each batch; and ii) matching an internal database of >600 compounds that have been characterized using the Broad Institute methods. Temporal drift was monitored and normalized with the intensities of features measured in the pooled reference samples. […]

[6] = human, in vivo; cited from earlier work
[7] = in vivo; cited from earlier work
[8] = tested on: colonic epithelial cells; details: cited from earlier work
[9] = in vivo; cited from earlier work; remark: listed apart in the source

NNc1nncc2ccccc12 [hydralazine]
acetylation of the compound by the thiolase [1]: did not observe any acetylation

CCN(CC)CCNC(=O)c1ccc(N)cc1 [procainamide]
acetylation of the compound by the thiolase [1]: did not observe any acetylation

Nc1ccc(O)c(C(=O)O)c1 [5-ASA, 5-aminosalicylic acid]
Km ([2]; +/−0.46 mM): 1880 µM | kcat ([2]; +/−0.0199): 0.00108 s⁻¹ | conversion of 5-ASA to N-acetyl 5-ASA using acetyl-CoA [3]: > 25% | conversion of 5-ASA to N-acetyl 5-ASA using acetyl-CoA [4]: > 25% | abundance of fecal 2-aminoadipate following 5-ASA treatment ([5]; 13 new users): reduced | abundance of fecal nicotinic acid (NA) with 5-ASA [5]: dropped | abundance of fecal nicotinuric acid (NUA) with 5-ASA [5]: dramatically increased | IBD patients who fail to respond or eventually lose response [6]: over half | intraluminal stool concentrations of 5-ASA (median) [7]: 30 mM

CC(=O)Nc1ccc(O)c(C(=O)O)c1 [N-acetyl 5-ASA]
bioavailability to colonic epithelial cells [8]: < 5% | anti-inflammatory activity in placebo-controlled trials [9]: lacks anti-inflammatory activity
